Measured values as given in patent US7232809B2, “Mitochondrially targeted antioxidants” (Antipodean Pharmaceuticals, Inc., priority 1997, dated 2007).
Where two headings read alike, the source gives them in different places. Values belong to the molecule of their own block, whether it stands above or below them.

Assays:
[1] = Stability of the quinol form in air; format: physicochemical
Procedure: The quinone was reduced to the quinol by taking a mixture of crude quinone and quinol (73 mg, ca. 3:1 by 1H NMR) in methanol (1 mL) was added NaBH4 (21 mg, 0.55 mmol). The mixture was stirred slowly under an argon atmosphere for 10 min. Excess NABH4 was quenched with 5% HBr (0.2 mL) and the mixture extracted with CH2Cl2. The organic extract was washed with H2O (3×5 mL). Solvent was removed under reduced pressure, giving a mixture of quinone and quinol (ca 1:5 by ^1H NMR) as a pale yellow solid (55 mg). For routine preparation of the quinol form the ethanolic solution, dissolve in 5 vols of water, (=1 ml) add a pinch of NaBH4 leave on ice in the dark for 5 min, then extract 3×0.5 ml dichloromethane, Wash with water/HCl etc blow off in nitrogen, dissolve in same vol of etoh and take spectrum and store at −80 under argon. Yield about 70–80%. […] Collect the upper organic phase and evaporate to dryness under a stream of N2 and dissolve in 1 ml ethanol acidified to pH 2.

[2] = biological target: T1, beef heart mitochondrial membranes, Complex III (Bos taurus, UniProt P00157+P13272); assay: Oxidation of mitoquinol by beef heart mitochondrial membranes (Complex III) and reduction of cytochrome c; format: biochemical
T1 construct: from tissue; host or cells: beef heart mitochondrial membranes

rat liver mitochondria [3] = assay: Toxicity of mitoquinol to isolated mitochondria (membrane potential, respiration rate)
Procedure: In A rat liver mitochondria energised with succinate were incubated with various concentrations of mitoquinol and the membrane potential determined as a percentage of control incubations. In B the respiration rate of succinate energised mitochondria under state 4 (black), state 3 (white) and uncoupled (stippled) conditions, as a percentage of control incubations.
The next assays were to determine the toxicity of these compounds to mitochondria and cells. To determine the toxicity to isolated mitochondria the effect on membrane potential and respiration rate were measured (FIG. 16).

rat liver mitochondria [4] = assay: Uptake of radiolabelled mitoquinol by energised mitochondria; format: in vitro ADME; details: tritiated compound, reversed by FCCP
Procedure: The next step was to see if mitoquinol was accumulated by energised mitochondria. To do this a tritiated version of the compound was made, incubated with energised mitochondria and the amount taken up into the mitochondria determined.

rat brain homogenates = assay: Inhibition of lipid peroxidation in rat brain homogenates (TBARS assay); format: biochemical
Procedure: The rat brain homogenates were incubated with or without various concentrations of the test compounds (compound 1; native Vitamin E (α-tocopherol), bromobutyl triphenylphosphonium bromide, Trolox (a water soluble form of Vitamin E) and compound 2, ie2-(2-bromoethyl)-3,4-dihydro-2,5,7,8-tetramethyl-2H-1-benzopyran-6-ol, the precursor of compound 1 (“Brom Vit E”)) and the oxidative damage occurring over the incubation was quantitated using the TBARS assay (Stocks et al., 1974, Clin Sci Mol Med 47,215–222). From this the concentration of compound required to inhibit oxidative damage by 50% was determined. In this system 210 nM compound 1 inhibited oxidative stress by 50% while the corresponding value for native Vitamin E was 36 nM. The value for bromobutyltriphenylphosphonium bromide, which contains the triphenylphosphonium moiety but not the antioxidant Vitamin E moiety was 47 μM. […] Further details of the experimental procedures and results are set out below.
(§1) The IC50 values for inhibition of lipid peroxidation were determined in rat brain homogenates, and are means±SEM or range of determinations on 2–3 brain preparations. Octan-1-ol/PBS partition coefficients are means±SEM for three independent determinations. N.D. not determined. Partition coefficients were determined by mixing 200 μM of the compound in 2 ml water-saturated octanol-1-ol with 2 ml octanol-saturated-PBS at room temperature for 1 h, then the two layers were separated by brief centrifugation and their concentrations determined spectrophotometrically from standard curves prepared in PBS or octanol. To measure antioxidant efficacy four rat brains were homogenised in 15 ml 40 mM potassium phosphate (pH 7.4), 140 mM NaCl at 4° C., particulate matter was pelleted (1,000×g at 4° C. for 15 min) and washed once and the combined supernatants stored frozen. Aliquots were rapidly thawed and 5 mg protein suspended in 800 μl PBS containing antioxidant or ethanol carrier and incubated at 37° C. for 30 min. Thiobarbituric acid reactive species (TBARS) were quantitated at 532 nm by adding 200 μl conc. HClO4 and 200 μl 1% thiobarbituric acid to the incubation, heating at 100° C. for 15 min and then cooling and clarification by centrifugation (10,000×g for 2 min).

[5] = Octan-1-ol/PBS partition coefficient; format: physicochemical; details: 200 μM, room temperature, 1 h, means±SEM of three
Procedure: as §1

[6] = system: pentane extracted beef heart mitochondria; assay: Reactions with pentane-extracted beef heart mitochondria; format: biochemical; details: for restoration of NADH oxidation: pentane extracted beef heart mitochondria, NADH 125 μM, 50 μM compound
Procedure: Pentane extracted beef heart mitochondria (100 μg protein/ml) were suspended in 50 mM sodium phosphate, pH 7.2 at 20° C. In Panel A NADH (125 μM) was added and A340 was monitored and ubiquinone-1 (UQ-1; 50 μM added where indicated. This was repeated in Panel b, except that mitoubiquinone (50 μM) was added. In Panel C pentane extracted mitochondria were incubated with mitoquinone (50 μM), A275 was monitored and succinate (5 mM) and malonate (20 mM) added where indicated. In Panel D pentane-extracted mitochondria were incubated with NADH (125 μM), ferricytochrome c (50 μM) and A550 was monitored and mitoquinone (50 μM) was added where indicated. Addition of myxathiazol inhibited the rate of reduction by about 60–70%;
Mitoquinone/ol may be picking up and donating electrons directly from the active sites of the respiratory complexes, or it could be equilibrating with the endogenous mitochondrial ubiquinone pool. To address this question the endogenous ubiquinone pool was removed from beef heart mitochondria by pentane extraction.

rat liver mitochondria [7] = assay: Reduction of mitoquinone by intact mitochondria (A275); format: biochemical
Procedure: Rat liver mitochondria (100 μg/ml) were incubated in 120 mM KCl, 10 mM HEPES, 1 mM EGTA, pH 7.2 at 20° C. and A275 monitored. In panel A rotenone and succinate (5 mM) were present and mitoquinone (50 μM) was added where indicated. This experiment was repeated in the presence of malonate (20 mM) or FCCP ([…]). In panel B glutamate and malate (5 mM of each) were present from the start and mitoquinone (50 μM) was added where indicated. This experiment was repeated in the presence of FCCP or with rotenone and FCCP.

ferricytochrome c = ferricytochrome c (Homo sapiens, UniProt P99999); assay: Reactions of mitoquinone in the absence of mitochondrial membranes; format: biochemical
Procedure: FIGS. […] In panel A rotenone and antimycin were present and for the t=0 scan, then succinate (5 mM) was added and scans repeated at 5 minute intervals as indicated. In panel B A275 was monitored in the presence of rotenone and antimycin and then mitoquinone (50 μM) was added, followed by succinate (5 mM) and malonate (20 mM) where indicated. In Panel C rotenone, ferricytochrome c (50 μM) and malonate (20 mM) were present, A275 was monitored and mitoquinol (50 μM) and myxathiazol (10 μM) were added where indicated. In panel D A550 was monitored and the experiment in Panel C was repeated in the presence of KCN. Addition of myxathiazol inhabited this rate by about 60–70%.

[8] = biological target: T2, beef heart mitochondrial membranes, Complex II (Bos taurus, UniProt P35720+Q3T189+Q95123); assay: Reduction of mitoquinone by beef heart mitochondrial membranes with succinate (Complex II); format: biochemical
T2 construct: from tissue; host or cells: beef heart mitochondrial membranes
Procedure: FIGS. 12A to 12D show reactions of [10-(6′-ubiquinonyl)decyltriphenylphosphonium bromide] (“mitoquinone”) and the reduced form of the compound (“mitoquinol”) with mitochondrial membranes. Beef heart mitochondrial membranes (20 μg/ml) were suspended in 50 mM sodium phosphate, pH 7.2 at 20° C. In panel A rotenone and antimycin were present and for the t=0 scan, then succinate (5 mM) was added and scans repeated at 5 minute intervals as indicated. In panel B A275 was monitored in the presence of rotenone and antimycin and then mitoquinone (50 μM) was added, followed by succinate (5 mM) and malonate (20 mM) where indicated. In Panel C rotenone, ferricytochrome c (50 μM) and malonate (20 mM) were present, A275 was monitored and mitoquinol (50 μM) and myxathiazol (10 μM) were added where indicated. In panel D A550 was monitored and the experiment in Panel C was repeated in the presence of KCN. Addition of myxathiazol inhabited this rate by about 60–70%.
To determine whether the mitochondrial respiratory chain could also oxidise or reduce the compound mitoquinone was incubated with beef heart mitochondrial membranes (FIG. 12). In panel A the spectrum of fully oxidised mitoquinone in the presence of antimycin inhibited membranes is shown (t=0; FIG. 12A). Addition of succinate led to the gradual reduction of the […] as measured by repeating the measurement every five minutes and showing that the peak at 275 nm gradually disappeared, the presence of antimycin prevented the oxidation of the quinol by mitochondrial complex III.
The reduction of mitoquinone can be followed continuously at A275 nm (FIG. 12B). […] The rate of reduction of mitoquinone was 51±9.9 nmol/min/mg protein, which compares with the rate of reduction of cytochrome c by succinate in the presence of KCN of 359 nmol/min/mg. Allowing for the 2 electrons required for mitoquinone reduction compared with 1 for cytochrome c the rate of electron flux into the mitoquinone pool is of similar order to the electron flux through the respiratory chain.

rat liver mitochondria [9] = system: rat liver mitochondria
[10] = means±SEM or range, 2–3 brain preparations, read-out: IC50 for inhibition of lipid peroxidation
[11] = TBARS, read-out: concentration that inhibited oxidative stress by 50%

T2 sequence (P35720 30-169): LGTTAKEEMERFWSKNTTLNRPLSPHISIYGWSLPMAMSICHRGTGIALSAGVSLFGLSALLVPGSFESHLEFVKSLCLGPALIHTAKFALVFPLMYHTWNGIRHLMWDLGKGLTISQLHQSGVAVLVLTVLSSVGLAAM
T2 sequence (Q95123 56-158): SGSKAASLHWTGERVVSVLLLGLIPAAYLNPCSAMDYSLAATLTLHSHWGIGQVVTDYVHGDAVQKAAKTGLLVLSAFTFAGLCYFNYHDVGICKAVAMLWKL
T2 sequence (Q3T189 29-280): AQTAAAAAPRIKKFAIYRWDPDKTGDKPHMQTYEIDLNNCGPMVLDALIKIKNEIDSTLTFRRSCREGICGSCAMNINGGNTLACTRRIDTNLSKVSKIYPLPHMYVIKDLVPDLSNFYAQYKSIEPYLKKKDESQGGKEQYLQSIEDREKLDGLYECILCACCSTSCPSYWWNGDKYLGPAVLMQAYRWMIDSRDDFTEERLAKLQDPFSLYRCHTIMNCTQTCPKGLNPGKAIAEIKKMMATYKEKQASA
T2 sequence (P31039 44-665 partner): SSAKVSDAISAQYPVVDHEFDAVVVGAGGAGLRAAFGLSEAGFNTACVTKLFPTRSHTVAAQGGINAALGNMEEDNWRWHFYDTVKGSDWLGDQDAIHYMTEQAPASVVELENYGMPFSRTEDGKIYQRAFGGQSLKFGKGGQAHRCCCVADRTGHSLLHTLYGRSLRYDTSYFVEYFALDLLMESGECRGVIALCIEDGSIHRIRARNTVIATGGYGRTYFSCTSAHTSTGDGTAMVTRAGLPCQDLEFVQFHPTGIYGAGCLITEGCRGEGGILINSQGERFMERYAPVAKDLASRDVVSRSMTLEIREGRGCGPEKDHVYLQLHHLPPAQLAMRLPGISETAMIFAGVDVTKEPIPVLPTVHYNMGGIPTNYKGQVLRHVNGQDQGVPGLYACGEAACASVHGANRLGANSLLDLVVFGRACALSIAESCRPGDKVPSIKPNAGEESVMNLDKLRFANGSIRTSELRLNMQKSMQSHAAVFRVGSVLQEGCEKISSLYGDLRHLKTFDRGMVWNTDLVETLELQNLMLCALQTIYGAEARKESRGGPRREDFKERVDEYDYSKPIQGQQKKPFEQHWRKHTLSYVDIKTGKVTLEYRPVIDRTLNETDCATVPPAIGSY
ferricytochrome c, sequence (P99999 whole entry): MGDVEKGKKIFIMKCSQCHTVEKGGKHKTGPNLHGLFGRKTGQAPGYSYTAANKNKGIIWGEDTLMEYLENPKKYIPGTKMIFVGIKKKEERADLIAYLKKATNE

SMILES: COc1c(O)c(C)c(CCCCCCCCCC[P+](c2ccccc2)(c2ccccc2)c2ccccc2)c(O)c1OC [mitoquinol, 10-(6′-ubiquinolyl)decyltriphenylphosphonium bromide]
stability in air [1]: Oxidises rapidly in air | inhibition of rate by myxathiazol ([2]; FIG. 12 panel D, KCN present, myxathiazol 10 μM): 60–70% | initial rate of oxidation of mitoquinol ([2]; membranes inhibited with rotenone and malonate, mean of 2 +/- range): about 89±9 mmol mitoquinol/min/mg protein | initial rate of reduction of cytochrome c on addition of mitoquinol ([2]; membranes supplemented with ferricytochrome c, mean+/-range): about 93+/−13 nmol/min/mg | cytochrome c reduction not blocked by myxathiazol ([2]; myxathiazol): 30–40% | effect on mitochondrial function (rat liver mitochondria [3]; 10 μM): little effect on mitochondrial function | effect on mitochondrial function (rat liver mitochondria [3]; 25 μM and above): some uncoupling and inhibition of respiration | accumulation by energised mitochondria (rat liver mitochondria [4]): accumulated rapidly

SMILES: COC1=C(OC)C(=O)C(CC=C(C)C)=C(C)C1=O [ubiquinone-1, reference compound]
restoration of NADH oxidation [6]: partially restored

SMILES: BrCCCC[P+](c1ccccc1)(c1ccccc1)c1ccccc1.[Br-] [BrBTP, bromobutyltriphenylphosphonium bromide]
Octanol:PBS partition coefficient [5]: 3.83 ± 0.22 | IC50 (rat brain homogenates; [11]): 47 µM

SMILES: COC1=C(OC)C(=O)C(CCCCCCCCCC[P+](c2ccccc2)(c2ccccc2)c2ccccc2)=C(C)C1=O [mitoquinone, 10-(6′-ubiquinonyl)decyltriphenylphosphonium bromide]
reduction by intact energised mitochondria (rat liver mitochondria [7]; rat liver mitochondria, 50 μM): rapidly reduced | decrease of rate of reduction with FCCP (rat liver mitochondria [7]; uncoupler FCCP present): 2–3 fold | reaction on mixing with 50 μM ferricytochrome c (ferricytochrome c; 50 μM, A550): some reduction of A550 | reaction with succinate or NADH in the absence of mitochondrial membranes (ferricytochrome c; no membranes): no reaction | restoration of NADH oxidation [6]: restored NADH oxidation | inhibition of NADH-ferricytochrome c activity by myxathiazol ([6]; pentane extracted mitochondria, mitoquinone 50 μM): 60–70% | proportion reduced by succinate ([8]; antimycin inhibited beef heart membranes, succinate 5 mM): about 23% | Eh corresponding to proportion reduced ([8]; equilibration with succinate/fumarate couple): about +8 mV | rate of reduction of mitoquinone ([8]; rotenone inhibited membranes, succinate): 51±9.9 nmol/min/mg protein

Second part, led by results:

IC50 (rat brain homogenates; [10]): 18.5 ± 5.9 µM
SMILES: Cc1c(C)c2c(c(C)c1O)CCC(C)(C(=O)O)O2 (stereo not drawn) [Trolox]

Octanol:PBS partition coefficient [5]: 33.1 ± 4.4 | IC50 (rat brain homogenates; [10]): 0.045 ± 0.026 µM
SMILES: Cc1c(C)c2c(c(C)c1O)CCC(C)(CCBr)O2 (stereo not drawn) [Bromo Vit E, 2-(2-bromoethyl)-3,4-dihydro-6-hydroxy-2,5,7,8-tetramethyl-2H-1-benzopyran]

Octanol:PBS partition coefficient [5]: 27.4 ± 1.0 | IC50 (rat brain homogenates; [11]): 0.036 µM
SMILES: Cc1c(C)c2c(c(C)c1O)CC[C@@](C)(CCC[C@H](C)CCC[C@H](C)CCCC(C)C)O2 [α-Tocopherol, α-tocopherol]

proportion membrane-bound within mitochondria (rat liver mitochondria [9]): About 60%
SMILES: C[P+](c1ccccc1)(c1ccccc1)c1ccccc1 [TPMP, methyltriphenylphosphonium, reference compound]
change in A275 (rat liver mitochondria [7]; 50 μM added instead of mitoquinone): did not lead to changes in A275
